In brackets after ≈: the same amount, converted by molar mass. Activity calls are given as the source filed them. No cut-off for these calls is given here.

The source of these data is ChEMBL document CHEMBL6153094, “Rationally designed highly amphipathic antimicrobial peptides demonstrating superior bacterial selectivity relative to the corresponding α-helix peptide” (Eur J Med Chem, 2025).

The test system of one data set is Acinetobacter baumannii. In words: Antimicrobial activity against Acinetobacter baumannii ATCC 19606 assessed as inhibition of visible bacterial growth incubated for 18 hrs by broth microdilution method. Format: functional. For orientation: In broth dilution the organism is exposed to a series of concentrations in liquid medium.
The test system of a further data set is Escherichia coli. In words: Antimicrobial activity against Escherichia coli ATCC 25922 assessed as inhibition of visible bacterial growth incubated for 18 hrs by broth microdilution method. The class given is functional.
A further data set relates to Klebsiella pneumoniae. The experiment in a line: Antimicrobial activity against Klebsiella pneumoniae ATCC 700603 assessed as inhibition of visible bacterial growth incubated for 18 hrs by broth microdilution method. The class given is functional.
The next data set relates to Pseudomonas aeruginosa. The experiment in a line: Antimicrobial activity against Pseudomonas aeruginosa ATCC 27853 assessed as inhibition of visible bacterial growth incubated for 18 hrs by broth microdilution method. The class given is functional.
Another data set deals with Bacillus subtilis. The experiment in a line: Antimicrobial activity against Bacillus subtilis ATCC 23857 assessed as inhibition of visible bacterial growth incubated for 18 hrs by broth microdilution method. The class given is functional.
For data set [1], the system named is Staphylococcus epidermidis. The experiment in a line: Antimicrobial activity against Staphylococcus epidermidis ATCC 12228 assessed as inhibition of visible bacterial growth incubated for 18 hrs by broth-dilution method. Format: functional.
Data set [2] deals with Staphylococcus aureus. In words: Antimicrobial activity against Staphylococcus aureus ATCC 25923 assessed as inhibition of visible bacterial growth incubated for 18 hrs by broth-dilution method. Format: functional.
Another data set deals with Enterococcus faecalis. In words: Antimicrobial activity against Enterococcus faecalis ATCC 29212 assessed as inhibition of visible bacterial growth incubated for 18 hrs by broth-dilution method. Format: functional.
The subject of data set [3] is Staphylococcus aureus. In words: Antimicrobial activity against methicillin-drug resistant Staphylococcus aureus ATCC 33591 assessed as concentration required to eliminate 90% bacteria incubated for 18 hrs by broth-microdilution method. Format: functional.
Data set [4] has as its system Staphylococcus aureus. In words: Antibacterial activity against methicillin-resistant Staphylococcus aureus ATCC 33591 infected in male Balb/c mouse model of full thickness skin wound assessed as reduction in bacterial load in skin at 1 mg/ml pre-infected with bacteria for 1 hrs followed by compound administration at 1,12 and 36 hrs post infection and measured 60 hrs post infection by agar plate method. Format: functional, organism-based. To be noted: time 59.0 hrs.

Data set [5] has as its system Staphylococcus aureus. In words: Antibacterial activity against methicillin-resistant Staphylococcus aureus ATCC 33591 infected in male Balb/c mouse model of full thickness skin wound assessed as reduction in bacteria in skin wound at 1 mg/ml pre-infected with bacteria for 1 hrs followed by compound administration at 1,12 and 36 hrs post infection and measured after 10 days by photographic analysis. To be noted: time 10.0 day. Format: functional, organism-based.

The test system of data set [6] is Staphylococcus aureus. In words: Antibacterial activity against methicillin-resistant Staphylococcus aureus ATCC 33591 infected in male Balb/c mouse model of full thickness skin wound assessed as reduction in number of inflammatory cells in skin at 1 mg/ml pre-infected with bacteria for 1 hrs followed by compound administration at 1,12 and 36 hrs post infection and measured after 10 days by H and E staining based analysis. Format: functional, organism-based. To be noted: time 10.0 day.

The subject of data set [7] is Staphylococcus aureus. The experiment in a line: Antibacterial activity against methicillin-resistant Staphylococcus aureus ATCC 33591 infected in male Balb/c mouse model of full thickness skin wound assessed as decrease in cell necrosis in skin at 1 mg/ml pre-infected with bacteria for 1 hrs followed by compound administration at 1,12 and 36 hrs post infection and measured after 10 days by H and E staining based analysis. Format: functional, organism-based. To be noted: time 10.0 day.

The nature of data set [8]: Hemolytic activity in mouse red blood cells assessed as hemolysis incubated for 1 hrs by absorbance based assay. The class given is toxicity, cell-based. To be noted: erythrocyte.

The MIC is the lowest concentration that inhibits growth of the organism. On to `CO[C@H]1/C=C/O[C@@]2(C)Oc3c(C)c(O)c4c(O)c(c(/C=N/N5CCN(C)CC5)c(O)c4c3C2=O)NC(=O)/C(C)=C\C=C\[C@H](C)[C@H](O)[C@@H](C)[C@@H](O)[C@@H](C)[C@H](OC(C)=O)[C@@H]1C` [RIFAMPIN], for which the MIC with Acinetobacter baumannii is 1 µM (≈ 0.823 µg/mL); in the data set on Escherichia coli, 8 µM (≈ 6.58 µg/mL); in the data set with Klebsiella pneumoniae it was 32 µM (≈ 26.3 µg/mL); in the data set on Pseudomonas aeruginosa, 32 µM (≈ 26.3 µg/mL); in the data set with Bacillus subtilis, under 1 µM; in data set [1], under 1 µM. Also, the MIC in the data set on Staphylococcus aureus [2] and in the data set on Enterococcus faecalis was under 1 µM throughout.

As a reminder, the EC90 is the concentration at which the effect reaches the 90% level. For `CN[C@H](CC(C)C)C(=O)N[C@H]1C(=O)N[C@@H](CC(N)=O)C(=O)N[C@H]2C(=O)N[C@H]3C(=O)N[C@H](C(=O)N[C@H](C(=O)O)c4cc(O)cc(O)c4-c4cc3ccc4O)[C@H](O)c3ccc(c(Cl)c3)Oc3cc2cc(c3O[C@@H]2O[C@H](CO)[C@@H](O)[C@H](O)[C@H]2O[C@H]2C[C@](C)(N)[C@H](O)[C@H](C)O2)Oc2ccc(cc2Cl)[C@H]1O` [VANCOMYCIN], the MIC in the data set on Acinetobacter baumannii was 32 µM (≈ 46.4 µg/mL); with Escherichia coli it was 128 µM (≈ 186 µg/mL); with Klebsiella pneumoniae, 128 µM (≈ 186 µg/mL); in the data set with Pseudomonas aeruginosa it was over 128 µM; in the data set on Bacillus subtilis it was under 1 µM; in data set [1], under 1 µM. Besides, the MIC was under 1 µM in the data set with Staphylococcus aureus [2] and 2 µM (≈ 2.9 µg/mL) in the data set on Enterococcus faecalis. Besides, the EC90 with Staphylococcus aureus [3] stood at 289 nM. The result with Staphylococcus aureus [4], in the data set on Staphylococcus aureus [6] and in the data set on Staphylococcus aureus [7] was Active. Also, the Activity result in the data set on Staphylococcus aureus [5] is listed as “Active; Obvious Facilitation Of Wound Healing Not Observed”.

Take H-RRWFRRWERWFE-NH2: the minimal inhibitory concentration (MIC) was determined as 32 µM in the data set with Acinetobacter baumannii; 16 µM in the data set on Escherichia coli; 16 µM in the data set on Klebsiella pneumoniae; 16 µM in the data set with Pseudomonas aeruginosa; 4 µM in the data set on Bacillus subtilis; 8 µM in data set [1]. Moreover, the MIC stood at 32 µM in the data set on Staphylococcus aureus [2] and 128 µM with Enterococcus faecalis. Further, the HC10 in data set [8] was over 256 µM.

H-RRWFRRWFRRWF-NH2: the minimal inhibitory concentration (MIC) came to 16 µM with Acinetobacter baumannii; 16 µM with Escherichia coli; 16 µM in the data set on Klebsiella pneumoniae; 16 µM with Pseudomonas aeruginosa; 8 µM in the data set with Bacillus subtilis; 8 µM in data set [1]. Besides, the MIC was determined as 8 µM in the data set on Staphylococcus aureus [2] and 16 µM in the data set on Enterococcus faecalis. Moreover, the HC10 in [8] turned out to be 16.44 µM.

For H-RRWFRRWFRWFF-NH2, the minimal inhibitory concentration (MIC) with Acinetobacter baumannii amounted to 32 µM; in the data set with Escherichia coli it was 32 µM; in the data set on Klebsiella pneumoniae, 32 µM; in the data set with Pseudomonas aeruginosa, 16 µM; in the data set on Bacillus subtilis, 2 µM; in data set [1] it was 4 µM. Moreover, the MIC in the data set with Staphylococcus aureus [2] and with Enterococcus faecalis was 32 µM in each case. Further, the Activity result in [8] is “Toxic”.

In the case of “H-RRWFRRWGRWFG-NH2 [listing 1 of 2 here]”, in data set [8], the HC10 was over 256 µM.

With “H-RRWFRRWGRWFG-NH2 [listing 2 of 2 here]”, the minimum inhibitory concentration (MIC) was found to be 32 µM in the data set with Acinetobacter baumannii; 8 µM with Escherichia coli; 8 µM in the data set on Klebsiella pneumoniae; 2 µM in the data set on Pseudomonas aeruginosa; 2 µM in the data set on Bacillus subtilis; 2 µM in data set [1]. Further, the MIC turned out to be 16 µM in the data set on Staphylococcus aureus [2] and 32 µM with Enterococcus faecalis.

Consider H-RRWFRRWIRWFI-NH2, for which the MIC in the data set with Acinetobacter baumannii was 16 µM; in the data set with Escherichia coli, 16 µM; in the data set with Klebsiella pneumoniae, 16 µM; in the data set with Pseudomonas aeruginosa, 16 µM; in the data set with Bacillus subtilis, 1 µM; in [1], 4 µM. The MIC in the data set on Staphylococcus aureus [2] and in the data set on Enterococcus faecalis was 16 µM in each case. Also, in data set [8], the HC10 came to 2.39 µM.

As to H-RRWFRRWKRWFK-NH2, the MIC with Acinetobacter baumannii was 16 µM; in the data set on Escherichia coli, 8 µM; with Klebsiella pneumoniae, 4 µM; in the data set with Pseudomonas aeruginosa, 2 µM; in the data set on Bacillus subtilis it was 1 µM; in data set [1], 2 µM. The MIC in the data set with Staphylococcus aureus [2] was determined as 4 µM; with Enterococcus faecalis, 32 µM. Further, the HC10 in data set [8] was over 256 µM.

Take H-RRWFRRWLRWFL-NH2: the MIC was determined as 32 µM in the data set with Acinetobacter baumannii; 16 µM with Escherichia coli; 32 µM in the data set on Klebsiella pneumoniae; 16 µM in the data set on Pseudomonas aeruginosa; 2 µM with Bacillus subtilis; 2 µM in [1]. The results for the MIC in the data set on Staphylococcus aureus [2] and with Enterococcus faecalis were 16 µM and 32 µM, respectively. For the same molecule, in data set [8], the Activity result is reported as “Toxic”.

Turning to H-RRWFRRWTRWFT-NH2, the minimal inhibitory concentration (MIC) with Acinetobacter baumannii was determined as 8 µM; with Escherichia coli, 8 µM; with Klebsiella pneumoniae, 8 µM; in the data set with Pseudomonas aeruginosa it was 4 µM; in the data set with Bacillus subtilis it was 1 µM; in data set [1] it was 2 µM. The results for the MIC in the data set on Staphylococcus aureus [2] and with Enterococcus faecalis were 8 µM and 16 µM, respectively. In addition, the HC10 in data set [8] was over 256 µM.

Regarding H-RRWFRRWWRWFW-NH2, the MIC with Acinetobacter baumannii worked out at 32 µM; in the data set with Escherichia coli, 32 µM; in the data set with Klebsiella pneumoniae it was 64 µM; with Pseudomonas aeruginosa it was 32 µM; in the data set with Bacillus subtilis, 4 µM; in data set [1], 4 µM. The minimal inhibitory concentration (MIC) with Staphylococcus aureus [2] and with Enterococcus faecalis was 32 µM each time. The Activity entry in data set [8] was “Toxic”.
